Source: patent US8614290B2, “Cancer imaging and treatment” (Technische Universitat Munchen, priority 2007, dated 2013)
Numbered stars: 1 amine (or outer) side, 2 acyl side, 3 side chain; on linkers, the order of the positions; unused ones are H or OH. Bridge positions count the residues as written; N and C are the ends. Square brackets hold non-standard residues; d marks the D form. Peptide text beside a SMILES is read from it. I, II: the chains in the order shown. * marks the point of attachment. C16 diacid = O=C(O)CCCCCCCCCCCCCCC(=O)*; 2Nal = N[C@@H](Cc1ccc2ccccc2c1)C(=O)O; dNMeOrn = CN[C@H](CCCN)C(=O)O; Suc = O=C(CCC(=O)[*:2])[*:1]

Each compound was assayed against human CXCR4 (Homo sapiens, UniProt P61073) (assay: Competitive receptor binding assay on Jurkat cells with 125I-CPCR4 as tracer). Conditions: Table 1, Nα-monomethylated cyclic pentapeptides; read-out: IC50.
human CXCR4, sequence (P61073 whole entry): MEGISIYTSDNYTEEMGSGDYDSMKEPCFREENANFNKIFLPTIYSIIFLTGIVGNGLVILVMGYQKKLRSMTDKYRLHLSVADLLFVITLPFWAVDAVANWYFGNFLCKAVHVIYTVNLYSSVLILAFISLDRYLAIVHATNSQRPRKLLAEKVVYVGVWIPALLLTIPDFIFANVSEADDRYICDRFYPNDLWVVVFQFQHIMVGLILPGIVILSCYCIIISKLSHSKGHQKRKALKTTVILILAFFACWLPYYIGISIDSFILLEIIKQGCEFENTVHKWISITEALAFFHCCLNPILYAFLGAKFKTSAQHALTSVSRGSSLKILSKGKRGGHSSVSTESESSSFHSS
Set-up: Jurkat cells that endogenously express the CXCR4 receptor; endogenous in cells; host or cells: Jurkat cells
Experimental: For receptor binding assays cells were resuspended in PBS/0.2% BSA. A total of 200 μl of the suspension containing 400,000 Jurkat cells were incubated with 25 μl of the tracer solution (containing 3.1 kBq, approx. 0.1 nM) and 25 μl of the diluent or the competitor at different concentrations. […] After shaking for 2 h at room temperature, the incubation was terminated by centrifugation at 1300 rpm for 5 min. Cell pellets were washed once with cold PBS followed by a second centrifugation step. Cell bound radioactivity was determined by using a gamma counter. Experiments were repeated 2-3 times in triplicates. IC50 values of the compounds were calculated by nonlinear regression using GraphPad Prism (GraphPad Prism 4.0 Software, Inc., San Diego, Calif., USA). Each data point is the average of three determinations.

Compound | IC50
CN1C(=O)[C@@H](Cc2ccc(O)cc2)NC(=O)CNC(=O)[C@H](Cc2ccc3ccccc3c2)NC(=O)[C@H](CCCNC(=N)N)NC(=O)[C@@H]1CCCNC(=N)N [OD1, cyc[D-Tyr-(Me)Arg-Arg-Nal-Gly]] | 23 nM
CN1C(=O)[C@H](CCCNC(=N)N)NC(=O)[C@@H](Cc2ccc(O)cc2)NC(=O)CNC(=O)[C@H](Cc2ccc3ccccc3c2)NC(=O)[C@@H]1CCCNC(=N)N [OD3, cyc[D-Tyr-Arg-(Me)Arg-Nal-Gly]] | 31 nM

Same assay, conditions: Table 4, Orn-Nδ and/or Orn-Nα-modified pentapeptides; read-out: IC50

Compound | IC50
N=C(N)NCCC[C@@H]1NC(=O)[C@H](CCCNCc2ccc3ccccc3c2)NC(=O)[C@@H](Cc2ccc(O)cc2)NC(=O)CNC(=O)[C@H](Cc2ccc3ccccc3c2)NC1=O [cyc[D-Tyr-Orn(N2)-Arg-Nal-Gly]] (HELM PEPTIDE1{[dY].[O=C([C@H](CCCNCc1ccc2ccccc2c1)N[*:1])[*:2]].R.[O=C([C@H](Cc1ccc2ccccc2c1)N[*:1])[*:2]].G}$PEPTIDE1,PEPTIDE1,1:R1-5:R2$$$V2.0) | 49 ± 1 nM
N=C(N)NCCC[C@@H]1NC(=O)[C@H](CCCN(Cc2ccccc2)C(=O)c2ccc(F)cc2)NC(=O)[C@@H](Cc2ccc(O)cc2)NC(=O)CNC(=O)[C@H](Cc2ccc3ccccc3c2)NC1=O [cyc[D-Tyr-Orn(Bz,FB)-Arg-Nal-Gly]] (HELM PEPTIDE1{[O=C([C@H](Cc1ccc2ccccc2c1)N[*:1])[*:2]].G.[dY].[O=C(c1ccc(F)cc1)N(CCC[C@H](N[*:1])C(=O)[*:2])Cc1ccccc1].R}$PEPTIDE1,PEPTIDE1,1:R1-5:R2$$$V2.0) | 100 nM
N=C(N)NCCC[C@@H]1NC(=O)[C@H](CCCNCc2cccc3ccccc23)NC(=O)[C@@H](Cc2ccc(O)cc2)NC(=O)CNC(=O)[C@H](Cc2ccc3ccccc3c2)NC1=O [cyc[D-Tyr-Orn(N1)-Arg-Nal-Gly]] (HELM PEPTIDE1{[dY].[O=C([C@H](CCCNCc1cccc2ccccc12)N[*:1])[*:2]].R.[O=C([C@H](Cc1ccc2ccccc2c1)N[*:1])[*:2]].G}$PEPTIDE1,PEPTIDE1,1:R1-5:R2$$$V2.0) | 40 ± 3 nM

Same assay, conditions: Table 5, D-Orn derivatives, His, Phe; read-out: IC50

Compound | IC50
CN(CCC[C@@H]1C(=O)N[C@@H](CCCNC(=N)N)C(=O)N[C@@H](Cc2ccc3ccccc3c2)C(=O)NCC(=O)N[C@H](Cc2ccc(O)cc2)C(=O)N1C)C(=O)c1ccc(F)cc1 [cyc[D-Tyr-(Me)D-Orn(Me,FB)-Arg-Nal-Gly]] (HELM PEPTIDE1{[O=C([C@H](Cc1ccc2ccccc2c1)N[*:1])[*:2]].G.[dY].[CN(CCC[C@H](C(=O)[*:2])N(C)[*:1])C(=O)c1ccc(F)cc1].R}$PEPTIDE1,PEPTIDE1,1:R1-5:R2$$$V2.0) | 59 nM

Same assay, conditions: Table 10, dimers and monomers; read-out: IC50

IC50 | Compound
6.61 nM | CN1C(=O)[C@@H](Cc2ccc(O)cc2)NC(=O)CNC(=O)[C@H](Cc2ccc3ccccc3c2)NC(=O)[C@H](CCCNC(=N)N)NC(=O)[C@H]1CCCNC(=O)CCC(=O)NCCC[C@@H]1C(=O)N[C@@H](CCCNC(=N)N)C(=O)N[C@@H](Cc2ccc3ccccc3c2)C(=O)NCC(=O)N[C@H](Cc2ccc(O)cc2)C(=O)N1C [NMe-D-Orn n = 2] (I: cyclo([2Nal]G[dY][dNMeOrn]R) / II: cyclo([2Nal]G[dY][dNMeOrn]R); linker I:4-II:4 via Suc)
12.3 nM | CN1C(=O)[C@@H](Cc2ccc(O)cc2)NC(=O)CNC(=O)[C@H](Cc2ccc3ccccc3c2)NC(=O)[C@H](CCCN=C(N)N)NC(=O)[C@H]1CCCNC(=O)CNC(=O)CC(CC(=O)NCC(=O)NCCC[C@@H]1C(=O)N[C@@H](CCCN=C(N)N)C(=O)N[C@@H](Cc2ccc3ccccc3c2)C(=O)NCC(=O)N[C@H](Cc2ccc(O)cc2)C(=O)N1C)NC(=O)CCCCCNC(=O)CN1CCN(CC(=O)O)CCN(CC(=O)O)CCN(CC(=O)O)CC1 (single isomer, unassigned) [NMe-D-Orn + Gly DOTAAhxbetaAsp]
33.5 nM | CN1C(=O)[C@@H](Cc2ccc(O)cc2)NC(=O)CNC(=O)[C@H](Cc2ccc3ccccc3c2)NC(=O)[C@H](CCCNC(=N)N)NC(=O)[C@H]1CCCNC(=O)CCCCCCCCCCCCCCC(=O)NCCC[C@@H]1C(=O)N[C@@H](CCCNC(=N)N)C(=O)N[C@@H](Cc2ccc3ccccc3c2)C(=O)NCC(=O)N[C@H](Cc2ccc(O)cc2)C(=O)N1C [NMe-D-Orn n = 14] (I: cyclo([2Nal]G[dY][dNMeOrn]R) / II: cyclo([2Nal]G[dY][dNMeOrn]R); linker I:4-II:4 via C16 diacid (inferred); ring closure inferred)
57.9 nM | N=C(N)NCCC[C@@H]1NC(=O)[C@H](CCCNC(=O)CON=CCCCC=NOCC(=O)NCCC[C@@H]2NC(=O)[C@@H](Cc3ccc(O)cc3)NC(=O)CNC(=O)[C@H](Cc3ccc4ccccc4c3)NC(=O)[C@H](CCCNC(=N)N)NC2=O)NC(=O)[C@@H](Cc2ccc(O)cc2)NC(=O)CNC(=O)[C@H](Cc2ccc3ccccc3c2)NC1=O [Code A22, glutaric aldehyde-(cyclo[D-Tyr-Orn(amineoxyacetyl)-Arg-2-Nal-Gly])2]

Same assay, conditions: read-out: IC50 (affinity)

IC50 | Compound
58 ± 4.2 nM | N=C(N)NCCC[C@@H]1NC(=O)[C@H](CCCNC(=O)CON=CCCCC=NOCC(=O)NCCC[C@@H]2NC(=O)[C@@H](Cc3ccc(O)cc3)NC(=O)CNC(=O)[C@H](Cc3ccc4ccccc4c3)NC(=O)[C@H](CCCNC(=N)N)NC2=O)NC(=O)[C@@H](Cc2ccc(O)cc2)NC(=O)CNC(=O)[C@H](Cc2ccc3ccccc3c2)NC1=O [Code A22, glutaric aldehyde-(cyclo[D-Tyr-Orn(amineoxyacetyl)-Arg-2-Nal-Gly])2]
